These results are taken from patent US10183950B2, “Thienopyrimidine inhibitors of atypical protein kinase C” (Cancer Research Technology Limited, priority 2011, dated 2019).

Molecules are shown by their SMILES.

This assay has as its target T1, full-length human PKCι (Homo sapiens, UniProt P41743).
T1 construct: Recombinant, full-length human PKCι expressed in Sf21 insect cells is also commercially available; purchased; host or cells: Sf21 insect cells
T1 sequence (P41743 1-596): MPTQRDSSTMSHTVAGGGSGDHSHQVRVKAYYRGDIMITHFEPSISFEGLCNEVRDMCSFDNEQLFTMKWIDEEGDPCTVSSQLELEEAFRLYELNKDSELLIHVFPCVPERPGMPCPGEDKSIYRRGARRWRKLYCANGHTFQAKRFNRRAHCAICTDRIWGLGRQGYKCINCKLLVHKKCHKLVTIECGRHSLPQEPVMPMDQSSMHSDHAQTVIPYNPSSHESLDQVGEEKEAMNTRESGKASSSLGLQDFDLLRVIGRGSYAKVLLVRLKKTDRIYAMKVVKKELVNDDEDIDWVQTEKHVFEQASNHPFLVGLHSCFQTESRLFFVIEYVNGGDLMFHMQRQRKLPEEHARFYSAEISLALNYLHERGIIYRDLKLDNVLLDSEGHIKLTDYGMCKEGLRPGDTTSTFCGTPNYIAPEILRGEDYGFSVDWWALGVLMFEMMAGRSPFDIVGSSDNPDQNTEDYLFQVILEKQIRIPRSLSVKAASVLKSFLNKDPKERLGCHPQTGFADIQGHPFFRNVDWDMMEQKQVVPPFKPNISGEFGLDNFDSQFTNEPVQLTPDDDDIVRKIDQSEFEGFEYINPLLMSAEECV
The experiment in a line: PKCι IC50 IMAP fluorescence polarisation assay, full-length enzyme. The format is biochemical. Conditions: full length PKCi at 15 μM ATP; read-out: IC50 in IMAP assay against full length PKCi.

With `COc1cccc(C(=O)Nc2cc(-c3nc(N[C@@H]4CCNC4)c4sccc4n3)ccn2)c1` [compound 596, 3-Methoxy-N-{4-[4-((R)-pyrrolidin-3-ylamino)-thieno[3,2-d]pyrimidin-2-yl]-pyridin-2-yl}-benzamide], the IC50 was 0.1 to 1 µM. Turning to `c1cc(-c2nc(N[C@@H]3CCNC3)c3sccc3n2)cc(NCC2CC2)n1` [compound 597, {2-[2-(Cyclopropylmethyl-amino)-pyridin-4-yl]-thieno[3,2-d]pyrimidin-4-yl}-(R)-pyrrolidin-3-yl-amine], the IC50 is 1 to 10 µM. Turning to `c1ccc(CNc2cc(-c3nc(N[C@@H]4CCNC4)c4sccc4n3)ccn2)cc1` [compound 598, [2-(2-Benzylamino-pyridin-4-yl)-thieno[3,2-d]pyrimidin-4-yl]-(R)-pyrrolidin-3-yl-amine], the IC50 is 1 to 10 µM.

`O=C(Nc1cc(-c2nc(N[C@@H]3CCNC3)c3sccc3n2)ccn1)C1CC1` [compound 599, Cyclopropanecarboxylic acid {4-[4-((R)-pyrrolidin-3-ylamino)-thieno[3,2-d]pyrimidin-2-yl]-pyridin-2-yl}-amide]: the IC50 lay in the range of 0.1 to 1 µM. For `c1ccc(Nc2cc(-c3nc(N[C@@H]4CCNC4)c4sccc4n3)ccn2)nc1` [compound 600, {2-[2-(Pyridin-2-ylamino)-pyridin-4-yl]-thieno[3,2-d]pyrimidin-4-yl}-(R)-pyrrolidin-3-yl-amine], the 50% inhibitory concentration (IC50) is 1 to 10 µM. With `c1ccc(-c2ccc(Nc3cc(-c4nc(N[C@@H]5CCNC5)c5sccc5n4)ccn3)nc2)cc1` [compound 601, {2-[2-(5-Phenyl-pyridin-2-ylamino)-pyridin-4-yl]-thieno[3,2-d]pyrimidin-4-yl}-(R)-pyrrolidin-3-yl-amine], the IC50 lay in the range of 0.1 to 1 µM.

On to `c1cc(-c2nc(N[C@@H]3CCNC3)c3sccc3n2)cc(Nc2ccc(N3CCOCC3)cn2)n1` [compound 602, {2-[2-(5-Morpholin-4-yl-pyridin-2-ylamino)-pyridin-4-yl]-thieno[3,2-d]pyrimidin-4-yl}-(R)-pyrrolidin-3-yl-amine], for which the IC50 lay in the range of 0.1 to 1 µM.

With `CN1CCN(c2ccc(Nc3cc(-c4nc(N[C@@H]5CCNC5)c5sccc5n4)ccn3)nc2)CC1` [compound 603, (2-{2-[5-(4-Methyl-piperazin-1-yl)-pyridin-2-ylamino]-pyridin-4-yl}-thieno[3,2-d]pyrimidin-4-yl)-(R)-pyrrolidin-3-yl-amine], the IC50 is 0.1 to 1 µM. For `N#Cc1ccc(Nc2cc(-c3nc(N[C@@H]4CCNC4)c4sccc4n3)ccn2)nc1` [compound 604, 6-{4-[4-((R)-Pyrrolidin-3-ylamino)-thieno[3,2-d]pyrimidin-2-yl]-pyridin-2-ylamino}-nicotinonitrile], the IC50 fell in the range of 0.1 to 1 µM.

Take `CN1CCN(c2cccc(Nc3cc(-c4nc(N[C@@H]5CCNC5)c5sccc5n4)ccn3)c2)CC1` [compound 605, (2-{2-[3-(4-Methyl-piperazin-1-yl)-phenylamino]-pyridin-4-yl}-thieno[3,2-d]pyrimidin-4-yl)-(R)-pyrrolidin-3-yl-amine]: the IC50 was in the range of 0.1 to 1 µM. Then `N#Cc1cccc(Nc2cc(-c3nc(N[C@@H]4CCNC4)c4sccc4n3)ccn2)c1` [compound 606, 3-{4-[4-((R)-Pyrrolidin-3-ylamino)-thieno[3,2-d]pyrimidin-2-yl]-pyridin-2-ylamino}-benzonitrile], with 1 to 10 µM; and `N#Cc1ccc(Nc2cc(-c3nc(N[C@@H]4CCNC4)c4sccc4n3)ccn2)cc1` [compound 607, 4-{4-[4-((R)-Pyrrolidin-3-ylamino)-thieno[3,2-d]pyrimidin-2-yl]-pyridin-2-ylamino}-benzonitrile], with 1 to 10 µM; and `c1cc(-c2nc(N[C@@H]3CCNC3)c3sccc3n2)cc(Nc2ccc(N3CCCCC3)cc2)n1` [compound 608, {2-[2-(4-Piperidin-1-yl-phenylamino)-pyridin-4-yl]-thieno[3,2-d]pyrimidin-4-yl}-(R)-pyrrolidin-3-yl-amine], with 0.1 to 1 µM.

Usually IC50 stands for the concentration at which inhibition is half-maximal.
